From ChEMBL document CHEMBL4396926, “Design, Synthesis and Anticancer Evaluation of New Substituted Thiophene-Quinoline Derivatives” (Bioorg Med Chem, 2019) come the findings set out here.

For test [1], the target named is T1, DNA topoisomerase II (Homo sapiens, UniProt P11388+Q02880). Description: Inhibition of DNA topoisomerase 2 in human HeLa cells at 0.2 uM incubated for 18 to 24 hrs by kinase assay relative to control. Format: cell-based.
Test [2] addresses T1, DNA topoisomerase II. Description: Inhibition of DNA topoisomerase 2 in human MCF7 cells incubated for 18 to 24 hrs by kinase assay. Format: cell-based.
The target in test [3] is T1, DNA topoisomerase II. Description: Inhibition of DNA topoisomerase 2 in human MCF7 cells at 5 uM incubated for 18 to 24 hrs by kinase assay relative to control. The test is classed as cell-based.
In test [4] the target is T1, DNA topoisomerase II. Description: Inhibition of DNA topoisomerase 2 in human HeLa cells incubated for 18 to 24 hrs by kinase assay. The test is classed as cell-based.
Test [5] has as its target T1, DNA topoisomerase II. Description: Inhibition of DNA topoisomerase 2 in human HeLa cells at 1 uM incubated for 18 to 24 hrs by kinase assay relative to control. Format: cell-based.
Test [6] deals with T1, DNA topoisomerase II. Description: Inhibition of DNA topoisomerase 2 in human MCF7 cells at 25 uM incubated for 18 to 24 hrs by kinase assay relative to control. Format: cell-based.
Test [7] relates to MCF7. Description: Cell cycle arrest in human MCF7 cells assessed as accumulation at G2/M phase at IC50 after 24 hrs by propidium iodide staining based FACS analysis (reference value: 4.82%). Format: functional.
In test [8] the test system is MCF7. Description: Induction of apoptosis in human MCF7 cells assessed as increase in caspase 3 activation by measuring fold increase in caspase 3 level by fluorescence based solid phase sandwich ELISA. The test is classed as functional. On the technique in general: An ELISA detects its analyte on a solid surface through an enzyme-linked reagent.
For test [9], the system named is HeLa. Description: Cytotoxicity against human HeLa cells assessed as cell growth inhibition at 3.125 to 100 uM incubated for 72 hrs and measured after 2 hrs by microplate reader based WST-1 assay relative to control. The test is classed as functional. For orientation: Tetrazolium dyes change colour on reduction, which living cells bring about.
Test [10] has as its system MCF7. Description: Induction of apoptosis in human MCF7 cells assessed as early apoptotic cells after 24 hrs by Annexin V-FITC/propidium iodide staining-based FACS analysis (reference value: 0.29%). Format: functional.
The target of test [11] is T2, Epidermal growth factor receptor (Homo sapiens, UniProt P00533). Description: Inhibition of EGFR-TK in human MCF7 cells overexpressing EGFR incubated for 18 to 24 hrs by kinase assay. Format: cell-based.
T2 sequence (P00533 whole entry): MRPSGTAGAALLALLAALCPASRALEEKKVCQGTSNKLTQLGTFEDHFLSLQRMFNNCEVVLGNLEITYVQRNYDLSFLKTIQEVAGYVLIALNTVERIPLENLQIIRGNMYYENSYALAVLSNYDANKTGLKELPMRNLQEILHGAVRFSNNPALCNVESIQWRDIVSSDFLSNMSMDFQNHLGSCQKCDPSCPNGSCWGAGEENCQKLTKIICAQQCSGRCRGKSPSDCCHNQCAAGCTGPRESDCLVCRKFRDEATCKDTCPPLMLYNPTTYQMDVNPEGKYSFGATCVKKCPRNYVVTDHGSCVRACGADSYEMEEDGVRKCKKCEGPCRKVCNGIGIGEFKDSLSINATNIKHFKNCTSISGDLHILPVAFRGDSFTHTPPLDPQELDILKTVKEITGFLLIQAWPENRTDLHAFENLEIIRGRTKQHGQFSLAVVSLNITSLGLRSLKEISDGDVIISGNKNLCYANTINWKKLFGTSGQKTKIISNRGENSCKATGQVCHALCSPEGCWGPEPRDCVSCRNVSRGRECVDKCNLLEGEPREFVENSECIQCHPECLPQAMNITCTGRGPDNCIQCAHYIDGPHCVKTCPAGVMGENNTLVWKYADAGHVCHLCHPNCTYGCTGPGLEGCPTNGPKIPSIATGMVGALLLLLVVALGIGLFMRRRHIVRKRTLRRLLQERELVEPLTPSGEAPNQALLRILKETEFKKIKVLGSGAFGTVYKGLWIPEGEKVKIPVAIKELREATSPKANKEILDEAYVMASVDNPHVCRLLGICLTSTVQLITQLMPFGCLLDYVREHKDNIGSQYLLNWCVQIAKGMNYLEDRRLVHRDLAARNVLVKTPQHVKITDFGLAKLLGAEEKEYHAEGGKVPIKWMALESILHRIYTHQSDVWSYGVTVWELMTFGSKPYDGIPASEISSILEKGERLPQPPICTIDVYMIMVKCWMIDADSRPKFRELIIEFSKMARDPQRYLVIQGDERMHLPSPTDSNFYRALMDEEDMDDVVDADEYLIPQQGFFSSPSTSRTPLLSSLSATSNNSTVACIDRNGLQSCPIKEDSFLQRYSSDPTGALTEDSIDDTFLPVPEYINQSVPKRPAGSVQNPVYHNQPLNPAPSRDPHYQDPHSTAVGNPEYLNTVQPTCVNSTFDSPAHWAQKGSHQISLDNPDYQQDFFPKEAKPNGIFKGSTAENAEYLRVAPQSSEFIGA
The test system of test [12] is HepG2. Description: Cytotoxicity against human HepG2 cells assessed as increase in growth inhibition by measuring decrease in cell viability incubated for 72 hrs and measured after 2 hrs by microplate reader based WST-1 assay. The test is classed as functional.
Test [13] concerns MCF7. Description: Induction of apoptosis in human MCF7 cells after 24 hrs by Annexin V-FITC/propidium iodide staining-based FACS analysis. Format: functional, cell-based. In general terms: A flow cytometer gives signals particle by particle.
The target in test [14] is T1, DNA topoisomerase II. Description: Inhibition of DNA topoisomerase 2 in human MCF7 cells at 1 uM incubated for 18 to 24 hrs by kinase assay relative to control. The test is classed as cell-based.
Test [15] concerns MCF7. Description: Induction of apoptosis in human MCF7 cells assessed as increase in caspase 9 activation by measuring fold increase in caspase 9 level by fluorescence based solid phase sandwich ELISA. Format: functional.
For test [16], the system named is MCF7. Description: Induction of apoptosis in human MCF7 cells assessed as necrotic cells after 24 hrs by Annexin V-FITC/propidium iodide staining-based FACS analysis (reference value: 0.15%). The test is classed as functional.
For test [17], the system named is MCF7. Description: Induction of apoptosis in human MCF7 cells assessed as viable cells after 24 hrs by Annexin V-FITC/propidium iodide staining-based FACS analysis (reference value: 99.34%). Format: functional.
Test [18] concerns HCT-116. Description: Cytotoxicity against human HCT116 cells assessed as increase in growth inhibition by measuring decrease in cell viability incubated for 72 hrs and measured after 2 hrs by microplate reader based WST-1 assay. The test is classed as functional.
Test [19] concerns the target T1, DNA topoisomerase II. Description: Inhibition of DNA topoisomerase 2 in human MCF7 cells at 0.2 uM incubated for 18 to 24 hrs by kinase assay relative to control. Format: cell-based.
The test system of test [20] is HCT-116. Description: Cytotoxicity against human HCT116 cells assessed as cell growth inhibition at 3.125 to 100 uM incubated for 72 hrs and measured after 2 hrs by microplate reader based WST-1 assay relative to control. The test is classed as functional.
Test [21] concerns MCF7. Description: Cytotoxicity against human MCF7 cells assessed as cell growth inhibition at 3.125 to 100 uM incubated for 72 hrs and measured after 2 hrs by microplate reader based WST-1 assay relative to control. The test is classed as functional.
The test system of test [22] is MCF7. Description: Cytotoxicity against human MCF7 cells assessed as increase in growth inhibition by measuring decrease in cell viability incubated for 72 hrs and measured after 2 hrs by microplate reader based WST-1 assay. To be noted: Homo sapiens, MCF7; read-out: IC50. Format: functional.
Test [23] deals with HepG2. Description: Cytotoxicity against human HepG2 cells assessed as cell growth inhibition at 3.125 to 100 uM incubated for 72 hrs and measured after 2 hrs by microplate reader based WST-1 assay relative to control. Format: functional.
Test [24] deals with MCF7. Description: Induction of apoptosis in human MCF7 cells assessed as late apoptotic cells after 24 hrs by Annexin V-FITC/propidium iodide staining-based FACS analysis (reference value: 0.22%). Format: functional.
The subject of test [25] is HeLa. Description: Cytotoxicity against human HeLa cells assessed as increase in growth inhibition by measuring decrease in cell viability incubated for 72 hrs and measured after 2 hrs by microplate reader based WST-1 assay. The test is classed as functional.
Test [26] relates to MCF7. Description: Cell cycle arrest in human MCF7 cells assessed as accumulation at G0/G1 phase at IC50 after 24 hrs by propidium iodide staining based FACS analysis (reference value: 67.39%). The test is classed as functional.
The test system of test [27] is MCF7. Description: Cell cycle arrest in human MCF7 cells assessed as accumulation at S phase at IC50 after 24 hrs by propidium iodide staining based FACS analysis (reference value: 27.13%). The test is classed as functional.
Test [28] relates to MCF7. Description: Cell cycle arrest in human MCF7 cells assessed as accumulation at pre G1/apoptotic phase at IC50 after 24 hrs by propidium iodide staining based FACS analysis (reference value: 0.66%). The test is classed as functional.
Test [29] deals with HeLa. Description: Induction of apoptosis in human HeLa cells assessed as increase in caspase 3 activation by measuring fold increase in caspase 3 level by fluorescence based solid phase sandwich ELISA. Format: functional.
The test system of test [30] is HeLa. Description: Induction of apoptosis in human HeLa cells assessed as increase in caspase 9 activation by measuring fold increase in caspase 9 level by fluorescence based solid phase sandwich ELISA. Format: functional.
The target in test [31] is T2, Epidermal growth factor receptor. Description: Inhibition of EGFR-TK in human HeLa cells overexpressing EGFR incubated for 18 to 24 hrs by kinase assay. The test is classed as cell-based.
In test [32] the target is T1, DNA topoisomerase II. Description: Inhibition of DNA topoisomerase 2 in human HeLa cells at 25 uM incubated for 18 to 24 hrs by kinase assay relative to control. The test is classed as cell-based.
Test [33] addresses T1, DNA topoisomerase II. Description: Inhibition of DNA topoisomerase 2 in human HeLa cells at 5 uM incubated for 18 to 24 hrs by kinase assay relative to control. Format: cell-based.

The inhibition is how much of the control response was suppressed. The low end stands for little suppression, the high end for strong suppression. A word on the IC50: it is the point on the concentration scale where inhibition reaches its midpoint.

In the case of `CC[C@@]1(O)C(=O)OCc2c1cc1n(c2=O)Cc2cc3c(CN(C)C)c(O)ccc3nc2-1` [TOPOTECAN], the inhibition on DNA topoisomerase II [1] was determined as 32%; at DNA topoisomerase II [3], 85.6%; against DNA topoisomerase II [5] it was 66.5%; at DNA topoisomerase II [6], 92.8%. Further, the IC50 against DNA topoisomerase II [2] was found to be 0.48 µM; at DNA topoisomerase II [4], 0.73 µM.
`Clc1ccc(COC(c2cccs2)c2cc3ccccc3nc2Cl)cc1` (stereo not drawn): the Activity was 23.14% in the test with MCF7 [7]; 6.69% with MCF7 [10]; “Dose-dependent effect” in the test with MCF7 [13]; 1.6% in the test with MCF7 [16]; 82.72% with MCF7 [17]; 8.67% in the test on MCF7 [24]. Moreover, the Activity turned out to be 44.28% with MCF7 [26], 15.35% in the test with MCF7 [27] and 17.05% in the test with MCF7 [28]. The “fold change (FC)” value with MCF7 [8] is given as 33.7; with MCF7 [15], 29. The “growth inhibition (GI)” value in the test with HeLa [9] is reported as 30.41%; in the test with HCT-116 [20], below 10%; with MCF7 [21] it was 47.94%; in the test on HepG2 [23], below 10%. Further, the IC50 in test [11] was 3.66 µM; in the test on HepG2 [12] (hepg2) it was “Not Active”; against DNA topoisomerase II [2] it was 0.44 µM; with HCT-116 [18] (hct-116), “Not Active”; in the test with MCF7 [22], 28.3 µM; with HeLa [25] (hela), “Not Active”. In addition, the inhibition worked out at 84.7% on DNA topoisomerase II [3], 63.3% against DNA topoisomerase II [14], 36.3% on DNA topoisomerase II [19] and 93.2% at DNA topoisomerase II [6].
With `OC(c1cccs1)c1cc2ccccc2nc1Cl` (stereo not drawn), the “fold change (FC)” value with HeLa [29] was found to be 12.8; in the test with HeLa [30], 72.6. Besides, the half-maximal inhibitory concentration (IC50) with HepG2 [12] (Homo sapiens, HepG2, read-out: IC50) came out at 80.8 µM; in test [31], 6.3 µM; at DNA topoisomerase II [4], 4.95 µM; in the test with HCT-116 [18] (Homo sapiens, HCT-116, read-out: IC50), 69.3 µM; in the test with MCF7 [22] it was 80.6 µM; in the test with HeLa [25] (Homo sapiens, HeLa, read-out: IC50) it was 17.5 µM. Further, the inhibition at DNA topoisomerase II [1] turned out to be 3.85%; against DNA topoisomerase II [32], 80.7%; against DNA topoisomerase II [5], 20%; at DNA topoisomerase II [33], 45%.
